Where two headings read alike, the source gives them in different places.
Legend:
PYL3-Cy5.5 homodimers [1] = target: T1, PYL3-Cy5.5 homodimers (Arabidopsis thaliana, UniProt Q9SSM7); test: Fluorescence of PYL3-Cy5.5 as a function of ABA concentration (self-quenching); type: biochemical
T1 construct: made in house; host or cells: E. coli BL21[DE3], pET28
T1 sequence (Q9SSM7 1-209): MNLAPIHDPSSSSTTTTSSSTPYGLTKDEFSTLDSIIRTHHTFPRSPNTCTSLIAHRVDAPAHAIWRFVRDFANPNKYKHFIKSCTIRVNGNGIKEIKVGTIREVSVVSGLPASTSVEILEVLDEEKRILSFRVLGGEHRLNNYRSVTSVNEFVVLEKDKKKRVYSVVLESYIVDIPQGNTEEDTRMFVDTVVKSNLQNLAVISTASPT
Experimental: (§1) UV-Vis absorption measurements were performed on PYL3-Cy5.5, PYL3-BHQ3, and a 1:1 mixture of PYL3 containing PYL3-Cy5.5 and PYL3-BHQ3 (Shimadzu UV-Vis-NIR spectrophotometer, UV1700). […] Static light scattering (SLS) was used to determine the average molar mass (Malvern Zetasizer Nano S90 fitted with a 633 nm He—Ne laser). The mass of PYL3, PYL3-Cy5.5 and PYL3-BHQ3 was measured using Bruker UltraFlextreme MALDI TOF. Samples for MALDI-TOF measurement were prepared using a dried droplet method in a 2,5-Dihydroxyacetophenone (2,5-DHAP) matrix. The mass spectra were acquired with laser repetition frequency of 0.7-1 kHz.
Fluorescence from PYL3 and BHQ3-PYL3 homodimers in aqueous solution is weak, whereas fluorescence from PYL3-Cy5.5 homodimers (FIG. 2B) was as similarly intense as that of Cy5.5. […] If there is no change to the fluorescence intensity, then no self-quenching occurs. […] This quenching efficiency was used to estimate the quenching efficiency between Cy5.5 and BHQ3 in PYL3 heterodimers.

PYL3-Cy5.5 homodimers [2] = target: T1, PYL3-Cy5.5 homodimers; test: Static light scattering (SLS) average molecular mass of PYL3-Cy5.5 as a function of ABA concentration; type: biochemical
Experimental: as §1
Results from Static Light Scattering (SLS) measurements were used to estimate average molecular mass (FIG. 2D) based on molecular motion in solution, although the method is controversial when the molecular mass is on the order of a few thousand atomic mass units.

[3] = target: T2, PYL3-Cy5.5 and PYL3-BHQ3 dimers (hetero- and homodimers) (Arabidopsis thaliana, UniProt Q9SSM7); test: Static light scattering (SLS) average molar mass of PYL3-Cy5.5 / PYL3-BHQ3 mixture as a function of ABA concentration; type: biochemical; conditions: for PYLs in dimers (hetero- and homodimers, %) / PYLs in monomers (%): calculated using the SLS data
T2 construct: made in house; host or cells: E. coli BL21[DE3], pET28
T2 sequence (Q9SSM7 1-209) 1: T1 sequence (Q9SSM7 1-209)
T2 sequence (Q9SSM7 1-209) 2: T1 sequence (Q9SSM7 1-209)
Experimental: as §1

[4] = target: T3, PYL3-Cy5.5/PYL3-BHQ3 heterodimer mixture (Arabidopsis thaliana, UniProt Q9SSM7); test: Fluorescence of 1:1 PYL3-Cy5.5 / PYL3-BHQ3 mixture as a function of ABA concentration; type: biochemical; conditions: for Fluorescence from Cy5.5 in monomers / Sum of Cy5.5 fluorescence / Total fluorescence / Fluorescence from Cy5.5 in heterodimers / Fluorescence from Cy5.5 in homodimers: calculated; for Total fluorescence: BHQ3 concentration attenuation factor 0.27; for Fluorescence from Cy5.5 in heterodimers: FRET quenching factor 0.1; for Fluorescence from Cy5.5 in homodimers: self-quenching factor 0.8
T3 construct: made in house; host or cells: E. coli BL21[DE3], pET28
T3 sequence (Q9SSM7 1-209) 1: T1 sequence (Q9SSM7 1-209)
T3 sequence (Q9SSM7 1-209) 2: T1 sequence (Q9SSM7 1-209)
Experimental: This increase should arise from more dissociated PYL3-Cy5.5/PYL3-BHQ3 monomers, which lead to decreased FRET quenching of Cy5.5 by BHQ3 in the heterodimers and decreased self-quenching from Cy5.5 in PYL3-Cy5.5/PYL3-Cy5.5 homodimers as shown in FIG. 2C. Assuming BHQ3 in PYL3-BHQ3 behaves similarly as free BHQ3 in solutions, BHQ3 concentration dependent attenuation (FIG. 3D) is 64%, i.e., fluorescence is decreased to 36% of the signal of pure Cy5.5, at the BHQ3-PYL3 concentration of 4.0 μM used in the measurements. FRET quenching of Cy5.5 by BHQ3 in heterodimers is assumed to be 90%. […] In calculating the final fluorescence intensities (Total fluorescence) in Table 1, we employ the self-quenching, FRET quenching and BHQ3 concentration-dependent attenuation efficiency of 20%, 90% and 73.2%, respectively. The corresponding factors are 0.8, 0.1 and 0.27, respectively. The BHQ3 concentration dependent attenuation efficiency is slightly higher than 64% measured using a mixture of 4 μM of Cy5.5 and 4 μM BHQ3. The calculated final fluorescence intensities are within the standard deviations of the measured values.
For the data presented in Table 1, a self-quenching efficiency of 20% and BHQ3 concentration dependent quenching shown in FIG. 3C are used for calculation together with a calibrated fluorescence intensity of 79,653 cps from 4.65 μM Cy5.5. Units of fluorescence intensity are counts per second (cps). The values are calculated unless specified otherwise.^a Fluorescence intensity=amount of Cy5.5×calibrated unit fluorescence intensity.^b Fluorescence intensity=amount of Cy5.5×self-quenching factor (0.8)×calibrated unit fluorescence intensity.^c Fluorescence intensity=amount of Cy5.5×FRET quenching factor (0.1)×calibrated unit fluorescence intensity.^d Sum of a, b, and c.^e Total fluorescence=BHQ3 concentration attenuation factor (0.27)×d.

[5] = target: T4, homodimeric receptor PYL3 (Arabidopsis thaliana, UniProt Q9SSM7); conditions: read-out: equilibrium dissociation constant (Kd) of homodimeric receptor PYL3, cited from earlier work
T4 sequence (Q9SSM7 1-209): T1 sequence (Q9SSM7 1-209)

## CC1=CC(=O)CC(C)(C)[C@@]1(O)/C=C/C(C)=C\C(=O)O [ABA, abscisic acid]
PYL3-Cy5.5 homodimers [1]; ABA increases from 0.1 μM to 1 mM, on average
  increase of fluorescence intensity of PYL3-Cy5.5: 20%
PYL3-Cy5.5 homodimers [2]; 0.1 μM ABA
  PYL3-Cy5.5 in the homodimer form: 94%
  average molecular mass (SLS): 50 kDa
PYL3-Cy5.5 homodimers [2]; 0.1 μM ABA, 51.6 kDa homodimers, 25.8 kDa monomers chosen
  PYL3-Cy5.5 in the monomeric form: 6%
PYL3-Cy5.5 homodimers [2]; 1 mM ABA
  PYL3-Cy5.5 in the homodimer form: 24%
  PYL3-Cy5.5 in the monomeric form: 76%
  average molecular mass (SLS): 30 kDa
PYL3-Cy5.5 homodimers [2]; ABA increases from 100 nM to 40 μM
  decrease of average molecular mass of the species in solution: ~20%
PYL3-Cy5.5 homodimers [2]; ABA increases from 50 to 100 μM
  further decrease of average molecular mass of the species in solution: 20%
[3]; 100 nM ABA
  average molecule mass (SLS) of PYL3-Cy5.5 / PYL3-BHQ3 mixture: 50 kDa
[3]; ABA 0.1 μM
  Average molar mass (measured, amu): 51110 amu
  PYLs in dimers (hetero- and homodimers, %): 98%
  PYLs in monomers (%): 2%
[3]; ABA 1.0 μM
  Average molar mass (measured, amu): 47410 amu
  PYLs in dimers (hetero- and homodimers, %): 84%
  PYLs in monomers (%): 16%
[3]; ABA 40 μM
  Average molar mass (measured, amu): 43330 amu
  PYLs in dimers (hetero- and homodimers, %): 68%
  PYLs in monomers (%): 32%
[3]; ABA 100 μM
  Average molar mass (measured, amu): 34050 amu
  PYLs in dimers (hetero- and homodimers, %): 32%
  PYLs in monomers (%): 68%
[3]; ABA 1000 μM
  Average molar mass (measured, amu): 31080 amu
  PYLs in dimers (hetero- and homodimers, %): 20%
  PYLs in monomers (%): 80%
[4]
  ABA concentration the current design can detect: 200 nM
[4]; ABA 0.1 μM
  Fluorescence (measured): 3960 cps
  Fluorescence from Cy5.5 in monomers: 630 cps
  Sum of Cy5.5 fluorescence: 14553 cps
  Total fluorescence: 4045 cps
  Fluorescence from Cy5.5 in heterodimers: 1575 cps
  Fluorescence from Cy5.5 in homodimers: 12348 cps
[4]; ABA 1.0 μM
  Fluorescence (measured): 4292 cps
  Fluorescence from Cy5.5 in monomers: 5040 cps
  Sum of Cy5.5 fluorescence: 16974 cps
  Total fluorescence: 4718 cps
  Fluorescence from Cy5.5 in heterodimers: 1350 cps
  Fluorescence from Cy5.5 in homodimers: 10584 cps
[4]; ABA 40 μM
  Fluorescence (measured): 5301 cps
  Fluorescence from Cy5.5 in monomers: 10080 cps
  Sum of Cy5.5 fluorescence: 19741 cps
  Total fluorescence: 5488 cps
  Fluorescence from Cy5.5 in heterodimers: 1092 cps
  Fluorescence from Cy5.5 in homodimers: 8568 cps
[4]; ABA 100 μM
  Fluorescence (measured): 6711 cps
  Fluorescence from Cy5.5 in monomers: 21420 cps
  Sum of Cy5.5 fluorescence: 25866 cps
  Total fluorescence: 7218 cps
  Fluorescence from Cy5.5 in heterodimers: 514 cps
  Fluorescence from Cy5.5 in homodimers: 4032 cps
[4]; ABA 1000 μM
  Fluorescence (measured): 9494 cps
  Fluorescence from Cy5.5 in monomers: 25200 cps
  Sum of Cy5.5 fluorescence: 28035 cps
  Total fluorescence: 7793 cps
  Fluorescence from Cy5.5 in heterodimers: 315 cps
  Fluorescence from Cy5.5 in homodimers: 2520 cps
[4]; ABA increased from less than one μM to one mM
  change of fluorescence intensity of the mixture: more than doubled
[4]; upon mixing with 100 μM ABA
  increase of fluorescence signal of the mixture: more than 50%

## PYL3-Cy5.5: PYL3 protein monomer chemically conjugated to the fluorescent molecule Cy5.5
PYL3-Cy5.5 homodimers [1]; absence of ABA, aqueous solution
  self-quenching in the PYL3-Cy5.5 homodimers: at least 20%

## PYL3: Arabidopsis abscisic acid receptor PYL3 (SEQ ID NO:4), recombinant, forms homodimers that monomerize upon ABA binding
[5]; at saturating ABA concentrations
  Kd: 52 µM
[5]; without ABA
  Kd: 7.76 µM

Source: patent US20220211037A1, “BIOSENSORS FOR DROUGHT STRESS IN PLANTS” (The Regents of the University of California, priority 2019, published 2022)
